Patent US11458189B2, “Cytoprotective drugs” (BALMES TRANSPLANTATION, priority 2017, dated 2022)
Starred links: 1 amine or outer side, 2 acyl side, 3 side chain; linkers in the order of their positions; H or OH if unused. Positions of bridges follow the written chain, without caps; N, C: chain ends. Non-standard residues stand in square brackets, D forms with d. Residues, ends and D or L forms follow the SMILES beside them. *: point of attachment. hTyr(3S-OH,4S-OH,3'-OSO3H) = N[C@H](C(=O)O)[C@H](O)[C@@H](O)c1ccc(O)c(OS(=O)(=O)O)c1; Orn(4R-OH,5R-OH) = O=C([C@H](C[C@@H](O)[C@@H](O)N[*:3])N[*:1])[*:2]; Pro(3S-OH,4S-Me) = C[C@H]1CN[C@H](C(=O)O)[C@H]1O; X1 = CCCCCOc1ccc(-c2cc(-c3ccc(C(=O)*)cc3)no2)cc1; Gln(3R-OH) = NC(=O)C[C@@H](O)[C@H](N)C(=O)O; Hyp = O=C(O)[C@@H]1C[C@@H](O)CN1

System: Human Hepatic Sinusoidal Endothelial Cells (HHSEC)
Test: Oxygen and glucose deprivation followed by replenishment, cell survival (calcein AM), HHSEC
Assay type: cell-based
Description: Anidulafungin and micafungin were tested on Human Renal Glomerular Endothelial Cells (HRGEC, Innoprot P10665), on Human Renal Proximal Tubular Epithelial Cells (HRPTEpiC, Innoprot P10662), on Human Astrocytes (HA, caltag SC-1800), on Human Cardiac Microvascular Endothelial Cells (HCMEC, Caltag SC-6000), on Human Hepatic Sinusoidal Endothelial Cells (HHSEC, Caltag SC-5000), on Rat Primary Kidney Glomerular Endothelial cells (Cellbiologics, RN-6014G) and on Bovine Brain Microvascular Endothelial Cells (BBMEC, Caltag SC-B100).
In a first phase, these isolated, purified and cryopreserved cells are thawed and multiplied according to the supplier's recommendations in T75 or T175 flasks pre-coated with 2 μg of fibronectin/[…] (CORNING) for HRGEC, HCMEC, HHSEC and BBMEC, or 2 μg poly-L-lysin/cm^2 (Caltag SC-0403) for HRPTEpiC and HA, or 15 mL/flask 175 cm^2 gelatin-based solution (Cellbiologics) in the presence of endothelial cell supplemented growth medium ECM (P60104, INNOPROT, Caltag, SC-1001) for HRGEC, HCMEC, HHSEC, RPKGEC or BBMEC, or astrocyte cell supplemented growth medium AM (Caltag SC-1801) for HA or epithelial cell supplemented growth medium EpiCM (P60106, INNOPROT) for HRPTEpiC, at 37° C. under 5% CO2 and saturated humidity until their confluency. They are then harvested by trypsinization according to the method described by the supplier for exactly 5 minutes and then reseeded in new flasks a maximum of three times.
To carry out the oxygen and glucose deprivation test followed by their replenishment, the cells will be seeded in 96-well black plates with transparent flat bottom (GREINER). Once a sufficient number of cells has been obtained to allow seeding of 2000 to 15000 cells per well of 96-well plates depending on the cell type, the cells are seeded in these 96-well plates previously coated with an extracellular matrix as listed above for the flasks. The cells are cultured for 5 to 8 days according to the cell type, in the presence of the same growth medium as in the flask as described above except for HRGEC and HRPTEpiC for which DMEM (DUTSCHER) with 1 g/L of supplemented glucose is used, at 37° C. under 5% CO2 and saturated humidity to obtain confluency.
On the first day of oxygen and glucose deprivation, (5th, 6th, 7th or 8th day of culture), the culture conditions are drastically changed. The medium of all plates is removed and replaced by DMEM (DUTSCHER) medium without glucose and supplemented only with 1% penicillin-streptomycin (DUTSCHER). Anidulafungin or micafungin dissolved in dimethyl sulfoxide (DMSO) is then added to each well at the desired concentration, resulting in a maximum of 1% DMSO, and the plates are placed under hypoxia at <1% 02 and 5% CO2 at 37° C. for 24 hours of culture. Each compound was tested in a concentration range.
After 24 hours, the growth medium is changed and replaced by a richer medium, DMEM (DUTSCHER) at 1 g/L glucose and 2% FBS (INNOPROT) and 1% penicillin-streptomycin (DUTSCHER). These media will have been pre-equilibrated at 37° C. in advance. The cells are then returned to culture at 37° C. under 20% 02 and 5% CO2 for 22h.
After 22 hours of reoxygenation, the potential protective effect of anidulafungin or micafungin is measured by a cell viability test using calcein AM (CORNING), which is a dye substrate. The calcein AM can easily cross the cell membrane of the viable cells. The AM ester groups mask the part of the molecule that chelates calcium. Once inside the cells, the (non-fluorescent) calcein AM is hydrolyzed to (fluorescent) calcein by endogenous esterases. The resulting calcein molecule binds to calcium inside the cell and remains trapped inside the cell. These molecules emit strong green fluorescence when subjected to […] of a particular wavelength (495 nm). Since dead cells lack esterase activity, only living cells are labelled.
This cell viability test is performed in two steps. […]

[1] = [Micafungin] log μM 0 (first line printed 0, r12)
[2] = [Micafungin] log μM 0 (second line printed 0, r14)

For `CCCCCOc1ccc(-c2cc(-c3ccc(C(=O)N[C@H]4C[C@@H](O)[C@@H](O)NC(=O)[C@@H]5[C@@H](O)[C@@H](C)CN5C(=O)[C@H]([C@H](O)CC(N)=O)NC(=O)[C@H]([C@H](O)[C@@H](O)c5ccc(O)c(OS(=O)(=O)O)c5)NC(=O)[C@@H]5C[C@@H](O)CN5C(=O)[C@H]([C@@H](C)O)NC4=O)cc3)no2)cc1` [Micafungin, {5-[(1S,2S)-2-[(3S,6S,9S,11R,15S,18S,20R,21R,24S,25S,26S)-3-[(1R)-2-carbamoyl-1-hydroxyethyl]-11,20,21,25-tetrahydroxy-15-[(1R)-1-hydroxyethyl]-26-methyl-2,5,8,14,17,23-hexaoxo-18-[(4-{5-[4-(pentyloxy)phenyl]-1,2-oxazol-3-yl}benzene)amido]-1,4,7,13,16,22-hexaazatricyclo[22.3.0.0]heptacosan-6-yl]-1,2-dihydroxyethyl]-2-hydroxyphenyl}oxidanesulfonic acid] (X1-[Orn(4R-OH,5R-OH)]T[Hyp][hTyr(3S-OH,4S-OH,3'-OSO3H)][Gln(3R-OH)][Pro(3S-OH,4S-Me)]; lactam 1-C), the “Globalfluo assay 1” value [1] was 2600496 arbitrary units, the “Globalfluo assay 2” value [1] was 2592730 arbitrary units and the “Globalfluo assay 3” value [1] was 2666315 arbitrary units. For the same compound, the Mean globalfluo [1] was 2619847 arbitrary units, the “Survival rate (%)” value [1] was 0% and the “Globalfluo assay 1” value [2] was 3063920 arbitrary units. For the same compound, the “Globalfluo assay 2” value [2] was 2647280 arbitrary units, the “Globalfluo assay 3” value [2] was 2608353 arbitrary units and the Mean globalfluo [2] was 2773184 arbitrary units. The “Survival rate (%)” value [2] was 1%, the “Globalfluo assay 1” value ([Micafungin] log μM 0.4771213) was 2619032 arbitrary units and the “Globalfluo assay 2” value ([Micafungin] log μM 0.4771213) was 2696453 arbitrary units. For the same compound, the “Globalfluo assay 3” value ([Micafungin] log μM 0.4771213) was 2858592 arbitrary units, the Mean globalfluo ([Micafungin] log μM 0.4771213) was 2724692 arbitrary units and the “Survival rate (%)” value ([Micafungin] log μM 0.4771213) was 1%. For the same compound, the “Globalfluo assay 1” value ([Micafungin] log μM 0.7781513) was 2942319 arbitrary units, the “Globalfluo assay 2” value ([Micafungin] log μM 0.7781513) was 3052699 arbitrary units and the “Globalfluo assay 3” value ([Micafungin] log μM 0.7781513) was 2975927 arbitrary units. The Mean globalfluo ([Micafungin] log μM 0.7781513) was 2990315 arbitrary units, the “Survival rate (%)” value ([Micafungin] log μM 0.7781513) was 2% and the “Globalfluo assay 1” value ([Micafungin] log μM 0.90309) was 2800146 arbitrary units. The “Globalfluo assay 2” value ([Micafungin] log μM 0.90309) was 3162662 arbitrary units, the “Globalfluo assay 3” value ([Micafungin] log μM 0.90309) was 3203256 arbitrary units and the Mean globalfluo ([Micafungin] log μM 0.90309) was 3055355 arbitrary units. The “Survival rate (%)” value ([Micafungin] log μM 0.90309) was 3%, the “Globalfluo assay 1” value ([Micafungin] log μM 1) was 3210890 arbitrary units and the “Globalfluo assay 2” value ([Micafungin] log μM 1) was 3369543 arbitrary units. The “Globalfluo assay 3” value ([Micafungin] log μM 1) was 2819931 arbitrary units, the Mean globalfluo ([Micafungin] log μM 1) was 3133455 arbitrary units and the “Survival rate (%)” value ([Micafungin] log μM 1) was 3%. The “Globalfluo assay 1” value ([Micafungin] log μM 1.079181) was 3383806 arbitrary units, the “Globalfluo assay 2” value ([Micafungin] log μM 1.079181) was 3457745 arbitrary units and the “Globalfluo assay 3” value ([Micafungin] log μM 1.079181) was 3493598 arbitrary units. The Mean globalfluo ([Micafungin] log μM 1.079181) was 3445050 arbitrary units, the “Survival rate (%)” value ([Micafungin] log μM 1.079181) was 5% and the “Globalfluo assay 1” value ([Micafungin] log μM 1.176091) was 3454603 arbitrary units. The “Globalfluo assay 2” value ([Micafungin] log μM 1.176091) was 3676802 arbitrary units, the “Globalfluo assay 3” value ([Micafungin] log μM 1.176091) was 3618017 arbitrary units and the Mean globalfluo ([Micafungin] log μM 1.176091) was 3583141 arbitrary units. The “Survival rate (%)” value ([Micafungin] log μM 1.176091) was 6%, the “Globalfluo assay 1” value ([Micafungin] log μM 1.30103) was 3383992 arbitrary units and the “Globalfluo assay 2” value ([Micafungin] log μM 1.30103) was 2974781 arbitrary units. For the same compound, the “Globalfluo assay 3” value ([Micafungin] log μM 1.30103) was 3188414 arbitrary units, the Mean globalfluo ([Micafungin] log μM 1.30103) was 3182396 arbitrary units and the “Survival rate (%)” value ([Micafungin] log μM 1.30103) was 3%. The “Globalfluo assay 1” value ([Micafungin] log μM −2) was 2651037 arbitrary units, the “Globalfluo assay 2” value ([Micafungin] log μM −2) was 2880244 arbitrary units and the “Globalfluo assay 3” value ([Micafungin] log μM −2) was 2908835 arbitrary units. For the same compound, the Mean globalfluo ([Micafungin] log μM −2) was 2813372 arbitrary units and the “Survival rate (%)” value ([Micafungin] log μM −2) was 1%.
